Several values for one entry are separate records, joined by “and”; a condition that tells them apart may be missing. Equal values may be shown once.
Test system: patients with treatment-resistant major depressive disorder (TRD)
Test: Phase 1/2 clinical trial of inhaled 5-MeO-DMT in TRD patients (12 mg, 18 mg, individualized dosing regimen IDR 6/12/18 mg)
Description: Patients were assigned to different groups. In the context of the present invention, the group who received a single, 12 mg dose and the group who underwent an intra-day individualized dosing regimen (IDR) that allowed for multiple, escalating doses (6 mg, 12 mg and 18 mg) within a single day, driven by the intensity of the patient-reported psychedelic experience are of interest.
The data gathered include the assessment of the treated patients against several scales including the Montgomery-Åsberg Depression Rating Scale (MADRS) and the Brief Psychiatric Rating Scale (BPRS).
This trial was designed in two parts. Part A was an open-label, single-arm, single-dose Phase 1 trial with two dose levels (12 mg (n=4) and 18 mg (n=4)). […] The primary endpoint of Part B was to assess the effects on the severity of depression, as assessed by the proportion of patients in remission on day seven after dosing, defined as a MADRS total score of less than or equal to 10.

## COc1ccc2[nH]cc(CCN(C)C)c2c1 [5-MeO-DMT]
12 mg n=4, 2 h
  MADRS Concentration Difficulties improvement (points): 9
  MADRS Concentration Difficulties percentage improvement: 56% and 56.25%
  MADRS Concentration Difficulties summed score: 7
  MADRS Inability to Feel improvement (points): 7
  MADRS Inability to Feel percentage improvement: 44% and 43.75%
  MADRS Inability to Feel summed score: 9
  MADRS Inner Tension improvement (points): 11
  MADRS Inner Tension percentage improvement: 85% and 84.62%
  MADRS Inner Tension summed score: 2
  MADRS Lassitude improvement (points): 6
  MADRS Lassitude percentage improvement: 38% and 37.50%
  MADRS Lassitude summed score: 10
  MADRS Pessimistic Thoughts improvement (points): 8
  MADRS Pessimistic Thoughts percentage improvement: 50%
  MADRS Pessimistic Thoughts summed score: 8
  MADRS Suicidal Thoughts improvement (points): 5
  MADRS Suicidal Thoughts percentage improvement: 63% and 62.50%
  MADRS Suicidal Thoughts summed score: 3
12 mg n=4, 3 h
  BPRS Anxiety improvement (points): 14
  BPRS Anxiety percentage improvement: 56%
  BPRS Anxiety summed score: 11
  BPRS Blunted Affect improvement (points): 3
  BPRS Blunted Affect percentage improvement: 27% and 27.27%
  BPRS Blunted Affect summed score: 8
  BPRS Emotional Withdrawal improvement (points): 2
  BPRS Emotional Withdrawal percentage improvement: 15% and 15.38%
  BPRS Emotional Withdrawal summed score: 11
  BPRS Guilt Feelings improvement (points): 9
  BPRS Guilt Feelings percentage improvement: 50%
  BPRS Guilt Feelings summed score: 9
  BPRS Tension improvement (points): 5
  BPRS Tension percentage improvement: 36% and 35.71%
  BPRS Tension summed score: 9
12 mg n=4, Day 1
  BPRS Anxiety improvement (points): 19
  BPRS Anxiety percentage improvement: 76%
  BPRS Anxiety summed score: 6
  BPRS Blunted Affect improvement (points): 5
  BPRS Blunted Affect percentage improvement: 45% and 45.45%
  BPRS Blunted Affect summed score: 6
  BPRS Emotional Withdrawal improvement (points): 5
  BPRS Emotional Withdrawal percentage improvement: 38% and 38.46%
  BPRS Emotional Withdrawal summed score: 8
  BPRS Guilt Feelings improvement (points): 13
  BPRS Guilt Feelings percentage improvement: 72% and 72.22%
  BPRS Guilt Feelings summed score: 5
  BPRS Tension improvement (points): 8
  BPRS Tension percentage improvement: 57% and 57.14%
  BPRS Tension summed score: 6
  MADRS Concentration Difficulties improvement (points): 14
  MADRS Concentration Difficulties percentage improvement: 88% and 87.50%
  MADRS Concentration Difficulties summed score: 2
  MADRS Inability to Feel improvement (points): 15
  MADRS Inability to Feel percentage improvement: 94% and 93.75%
  MADRS Inability to Feel summed score: 1
  MADRS Inner Tension improvement (points): 10
  MADRS Inner Tension percentage improvement: 77% and 76.92%
  MADRS Inner Tension summed score: 3
  MADRS Lassitude improvement (points): 16
  MADRS Lassitude percentage improvement: 100%
  MADRS Lassitude summed score: 0
  MADRS Pessimistic Thoughts improvement (points): 9
  MADRS Pessimistic Thoughts percentage improvement: 56% and 56.25%
  MADRS Pessimistic Thoughts summed score: 7
  MADRS Reduced Sleep improvement (points): 2
  MADRS Reduced Sleep percentage improvement: 17% and 16.67%
  MADRS Reduced Sleep summed score: 10
  MADRS Suicidal Thoughts improvement (points): 3
  MADRS Suicidal Thoughts percentage improvement: 38% and 37.50%
  MADRS Suicidal Thoughts summed score: 5
12 mg n=4, Day 7
  BPRS Anxiety improvement (points): 19
  BPRS Anxiety percentage improvement: 76%
  BPRS Anxiety summed score: 6
  BPRS Blunted Affect improvement (points): 6
  BPRS Blunted Affect percentage improvement: 55% and 54.55%
  BPRS Blunted Affect summed score: 5
  BPRS Emotional Withdrawal improvement (points): 7
  BPRS Emotional Withdrawal percentage improvement: 54% and 53.85%
  BPRS Emotional Withdrawal summed score: 6
  BPRS Guilt Feelings improvement (points): 13
  BPRS Guilt Feelings percentage improvement: 72% and 72.22%
  BPRS Guilt Feelings summed score: 5
  BPRS Tension improvement (points): 8
  BPRS Tension percentage improvement: 57% and 57.14%
  BPRS Tension summed score: 6
  MADRS Concentration Difficulties improvement (points): 13
  MADRS Concentration Difficulties percentage improvement: 81% and 81.25%
  MADRS Concentration Difficulties summed score: 3
  MADRS Inability to Feel improvement (points): 15
  MADRS Inability to Feel percentage improvement: 94% and 93.75%
  MADRS Inability to Feel summed score: 1
  MADRS Inner Tension improvement (points): 8
  MADRS Inner Tension percentage improvement: 62% and 61.54%
  MADRS Inner Tension summed score: 5
  MADRS Lassitude improvement (points): 13
  MADRS Lassitude percentage improvement: 81% and 81.25%
  MADRS Lassitude summed score: 3
  MADRS Pessimistic Thoughts improvement (points): 8
  MADRS Pessimistic Thoughts percentage improvement: 50%
  MADRS Pessimistic Thoughts summed score: 8
  MADRS Reduced Sleep improvement (points): 6
  MADRS Reduced Sleep percentage improvement: 50%
  MADRS Reduced Sleep summed score: 6
  MADRS Suicidal Thoughts improvement (points): 1
  MADRS Suicidal Thoughts percentage improvement: 13% and 12.50%
  MADRS Suicidal Thoughts summed score: 7
12 mg n=4, day seven
  patients with MADRS remission: 50%
12 mg, day seven
  mean MADRS change from baseline: −21.0
  mean MADRS change from baseline, percent: −65%
18 mg n=4, day seven
  further patients with MADRS clinical response: 25%
  patients with MADRS remission: 25%
18 mg, day seven
  mean MADRS change from baseline, percent: −41%
Day 7
  patients maintaining remission (fraction): ⅞
